# Marks after values point to notes of the source that are not given here.
# Tests used:
# [1] = tested on: HUVEC (human umbilical vein endothelial cells); assay: Inhibition of cancer cell proliferation assay (SRB); assay type: cell-based; conditions: mean ± SD, 72 hours
# Source text: (§1) The cellular assay described here is to test the proliferation inhibition activity of the compound of Example 53 on the cancer cells in vitro using Sulforhodamine B (SRB) method. The cancer cells include HUVEC (human umbilical vein endothelial cells), HT-29 (human colon cancer cells), Mo7e (human megakaryoblastic leukemia cell line), A431 (human epidermoid carcinoma cells), NCI—H526 (small-cell lung cancer cells), and SK—BR-3 (human breast cancer cells).
# HUVEC cancer cell: American Type Culture Collection, Cat. No. CRL-1730
# (§2) The following in vitro assay is to determine the activity of the tested compound for inhibiting the proliferation of the cancer cells mentioned above. The activity is represented by the IC50 value. The general procedures of the assay are given as follows: Cancer cells mentioned above were chosen and seeded to 96-well cell culture plate at a suitable concentration (e.g., 5000 cells/mL medium). These cells then were incubated in carbon dioxide (CO2) incubator until they reached 85% confluency. […] 72 hours later, the activity of the tested compound for inhibiting the cell proliferation was determined by using Sulforhodamine B (SRB) method. IC50 value on tested cells is calculated by the data of inhibition rates of serial concentrations of the tested compound.
# [2] = tested on: A431 (human epidermoid carcinoma cells); assay: as above; assay type: cell-based; conditions: A-431, 72 h, read-out: IC50 A431
# Source text: (§3) The cancer cells include HUVEC (human umbilical vein endothelial cells), HT-29 (human colon cancer cells), Mo7e (human megakaryoblastic leukemia cell line), A431 (human epidermoid carcinoma cells), NCI—H526 (small-cell lung cancer cells), and SK—BR-3 (human breast cancer cells).
# (§4) The following in vitro assay is to determine the activity of the tested compound for inhibiting the proliferation of the cancer cells mentioned above. The activity is represented by the IC50 value. The general procedures of the assay are given as follows: Cancer cells mentioned above were chosen and seeded to 96-well cell culture plate at a suitable concentration (e.g., 5000 cells/mL medium). […] Then, the cell culture medium was replaced by fresh one with tested compound added in it at serial concentrations (general 6 to 7 concentrations). Then the cells were put back to the incubator and cultured continuously. 72 hours later, the activity of the tested compound for inhibiting the cell proliferation was determined by using Sulforhodamine B (SRB) method. IC50 value on tested cells is calculated by the data of inhibition rates of serial concentrations of the tested compound.
# [3] = tested on: SK—BR-3 (human breast cancer cells); assay: as above; assay type: cell-based; conditions: SK-BR-3, 72 h, read-out: IC50 SK-BR-3
# Source text: as §3, §4
# [4] = tested on: NCI—H526 (small-cell lung cancer cells); assay: as above; assay type: cell-based; conditions: Homo sapiens, NCI-H526, 72 h, read-out: IC50 NCI-H526
# Source text: as §3, §4
# [5] = tested on: NCI—H460 (non-small cell lung cancer); assay: Anticancer pharmacodynamic assay in vivo, xenograft; parameters: species or system nude mice; conditions: for T/C (%): relative tumor volume (%): NCI-H460 xenograft, d0-13, P < 0.01 vs Control
# Source text: (§5) The test method and steps are the same with those disclosed in “PHARMACODYNAMIC ASSAYS IN VIVO” of the present invention. The therapeutic effects of the compound of Example 53 against xenografts of colon cancer, non-small cell lung cancer, liver cancer, melanoma, renal cancer in nude mice are estimated.
# NCI—H460 (non-small cell lung cancer): Cell Bank, Chinese Academy of Sciences, TCHu205;
# (§6) Nude mice were hypodermic inoculated HT-29 human colon cancer cell. After tumors grew to 100-300 mm^3, mice were randomly divided into teams (d0). The volume of tumors and weigh of the mice were measured for 2-3 times per week. The calculation formula of the volume of tumor (V) is: V=½×a×b^2, a: length of tumor, b: width of tumor.
# Caki-1 (renal cancer) = assay: as above; parameters: species or system nude mice; conditions: for T/C (%): relative tumor volume (%): Caki-1 xenograft, d0-22
# Source text: as §5
# Caki-1 (renal cancer): Cell Bank, Chinese Academy of Sciences, TCHu135.
# as §6
# [6] = tested on: Mo7e (human megakaryoblastic leukemia cell line); assay: Inhibition of cancer cell proliferation assay (SRB); assay type: cell-based; conditions: mean ± SD, 72 hours
# Source text: as §1
# Mo7e cancer cell: originally described by Avanzi et al. ((1988) Br. J. Haematol. 69:359-366), was obtained from Genetics Institute (Boston, Mass.) and was maintained in Iscove's modified Dulbecco's medium (Life Technologies, Inc.);
# as §2, with “medium).” for “medium). These cells then were incubated in carbon dioxide (CO2) incubator until they reached 85% confluency.”
compound,measurement,setting,value
"Cc1c(/C=C2\C(=O)Nc3ccc(F)cc32)[nH]c2c1C(=O)N(C[C@H](O)CN1CCOCC1)CCC2 [Example 53, (R,Z)-2-(5-Fluoro-2-oxo-1,2-dihydro-indol-3-ylidenemethyl)-5-(2-hydroxy-3-morpholin-4-yl-propyl)-3-methyl-5,6,7,8-tetrahydro-1H-pyrrolo[3,2-c]azepin-4-one]",IC50,[1],1.1 µM
same,IC50,[2],2 ± 0.5 µM
same,IC50,[3],7.8 ± 1.5 µM
same,IC50,[4],8.3 ± 0.3 µM
same,T/C (%): relative tumor volume (%),[5]; 15 mg/kg p.o,41.1* %
same,T/C (%): relative tumor volume (%),[5]; 30 mg/kg p.o,46.3* %
same,T/C (%): relative tumor volume (%),[5]; 60 mg/kg p.o,58.4* %
same,anticancer activity against xenograft (in words),[5]; NCI—H460 xenograft in nude mice,obvious anticancer activity
same,anticancer activity against xenograft (in words),Caki-1 (renal cancer); Caki-1 xenograft in nude mice,obvious anticancer activity
same,T/C (%): relative tumor volume (%),Caki-1 (renal cancer); 15 mg/kg p.o,73.0%
same,T/C (%): relative tumor volume (%),Caki-1 (renal cancer); 30 mg/kg p.o,45.5%
same,T/C (%): relative tumor volume (%),Caki-1 (renal cancer); 60 mg/kg p.o,36.8%
same,IC50,[6],0.8 µM

# Source: patent US20130303518A1, “Methods of Inhibiting the Catalytic Activity of a Protein Kinase and of Treating a Protein Kinase Related Disorder” (JIANGSU HANSOH PHARMACEUTICAL CO., LTD., priority 2007, published 2013)
